Reference: patent publication US10632105B2, “Pharmacological stimulation to facilitate and restore standing and walking functions in spinal cord motor disorders” (ECOLE POLYTECHNIQUE FEDERALE DE LAUSANNE (EPFL), priority 2013, dated 2020)
“Also recorded” adds a separate entry of the source.

Assays:
[1] = 8-OHDPAT in combination with α2c stimulation and/or α2a blocking, locomotion; type: in vivo; conditions: 8-OHDPAT in combination with the α2c stimulation or the α2a blocking or both
spinal rats = test: Stepping patterns enabled by EES in spinal rats (complete T7 transection, bipedal treadmill); type: in vivo, rat; conditions: for locomotion / stepping enabled by EES: treadmill 13 cm/s, clonidine 0.4-0.5 mg/kg, BRL-44408 given 5 min before clonidine in the combination
Experimental: Link R E, Desai K, Hein L, Stevens M E, Chruscinski A, Bernstein D, Barsh G S, Kobilka B K. Science. 1996 Aug. 9; 273(5276):803-5).
All procedures have been described in detail previously (see above, Courtine et al., 2009). Briefly, under general anesthesia and aseptic conditions, a partial laminectomy was performed over spinal segments L2 and S1. Teflon-coated stainless-steel wires (AS632; Cooner Wire) were passed under the spinous processes and above the dura mater of the remaining vertebrae between the partial laminectomy sites.
Bipolar intramuscular EMG electrodes using the same wire type as above were inserted bilaterally in the midbelly of the tibialis anterior (TA), midbelly of the vastus lateralis (VL), distal deep compartment of the semitendinosus (St), and medial deep region of the medial gastrocnemius (MG) muscles. All electrode wires were connected to a percutaneous amphenol connector cemented to the rat skull. In the same surgical intervention, the spinal cord was transected completely at a midthoracic level (T7) (Courtine et al., 2009).
All experimental testing followed the same protocol.
In KO mice experiments, only clonidine was injected intraperitoneally.
Three-dimensional video recordings (200 Hz) were made using the motion capture system VICON. Eight infrared television cameras (200 Hz) were used to track the motion of reflective markers attached bilaterally at the iliac crest, greater trochanter, lateral condyle, lateral malleolus, distal end of the fifth metatarsal [metatarsophalangeal joint (MTP)], and tip of the toe (FIG. 1A). Nexus (Vicon) was used to obtain 3-D coordinates of the markers. The body was modeled as an interconnected chain of rigid segments, and joint angles were generated accordingly.
Moments and ground reaction forces in the vertical, antero-posterior, and mediolateral directions were monitored using a biomechanical force plate (2 kHz; HE6X6; AMTI) located below the treadmill belt (FIG. 1A). Vicon BodyBuilder (Vicon) was used to compute the displacements of the center of foot pressures.
EMG signals (2 kHz) were amplified, filtered (10-1000 Hz bandpass), stored, and analyzed off-line to compute the amplitude, duration, and timing of individual bursts (Courtine et al., 2009).
Ten successive step cycles were extracted for both the left and right hindlimbs from a continuous sequence of stepping on the treadmill for each animal under each condition. When no stepping movements were observed, a 10 s period was recorded and analyzed. A total of 129 parameters quantifying gait, kinematics, kinetics, and EMG features were computed for each limb and gait cycle according to methods described in detail previously (Kinematic and EMG determinants in quadrupedal locomotion of a non-human primate (Rhesus). Courtine G, Roy R R, Hodgson J, McKay H, Raven J, Zhong H, Yang H, Tuszynski M H, Edgerton V R. J Neurophysiol. 2005 June; 93(6):3127-45; Recovery of supraspinal control of stepping via indirect propriospinal relay connections after spinal cord injury. Courtine G, Song B, Roy R R, Zhong H, Herrmann J E, Ao Y, Qi J, Edgerton V R, Sofroniew M V. Nat Med. 2008 January; 14(1):69-74; Transformation of nonfunctional spinal circuits into functional states after the loss of brain input. Courtine G, Gerasimenko Y, van den Brand R, Yew A, Musienko P, Zhong H, Song B, Ao Y, Ichiyama R M, Lavrov I, Roy R R, Sofroniew M V, Edgerton V R. Nat Neurosci. 2009 October; 12(10): 1333-42).
These parameters provided a holistic quantification of locomotor patterns ranging from general features of gait to fine details of limb motions and coordination. To allow direct comparisons between the different experimental conditions, all computed variables were normalized to those measured before drug injection (i.e., during locomotion facilitated by dual-site EES alone).
All data are reported as mean values±SEM. Repeated-measures ANOVAs were used to test differences between locomotor parameters recorded before and after drug injections […]

α2a KO mice = conditions: spinal α2a KO mice, EES, clonidine i.p.
Experimental: (§1) The experiments in rats were conducted on adult female Sprague Dawley (300 g body weight). Functional testings in mice were carried out in α2a and α2c knockout animals aged 3-5 months, from both gender, obtained from L. Hein (University of Freiburg, Germany). The generation of the mouse lines lacking α2-adrenoreceptor subtypes has been previously described in detail (Abnormal regulation of the sympathetic nervous system in alpha2A-adrenergic receptor knockout mice. Altman J D, Trendelenburg A U, MacMillan L, Bernstein D, Limbird L, Starke K, Kobilka B K, Hein L. Mol Pharmacol. 1999 July; 56(1):154-61; Targeted inactivation of the gene encoding the mouse alpha 2c-adrenoceptor homolog. Link R E, Stevens M S, Kulatunga M, Scheinin M, Barsh G S, Kobilka B K. Mol Pharmacol. 1995 July; 48(1):48-55; Cardiovascular regulation in mice lacking alpha2-adrenergic receptor subtypes b and c. Link R E, Desai K, Hein L, Stevens M E, Chruscinski A, Bernstein D, Barsh G S, Kobilka B K. Science. 1996 Aug. 9; 273(5276):803-5). To investigate the spinal distribution of the α2 subtypes, we used BAC transgenic mice expressing the reporter protein GFP upstream the coding sequence of the α2a or α2c receptor subtype (strains 014248-UCD and 030098-UCD MMRRC, USA). All procedures were approved by the Veterinary Office of the Canton of Vaud, Switzerland. Animals were housed individually on a 12 h light/dark cycle, with access to food and water ad libitum.
(§2) All tested animals were allowed to recover for 2-5 weeks after lesion to regain stable levels of excitability in the spinal networks to facilitate locomotion via EES (Epidural stimulation induced modulation of spinal locomotor networks in adult spinal rats. Lavrov I, Dy C J, Fong A J, Gerasimenko Y, Courtine G, Zhong H, Roy R R, Edgerton V R. J Neurosci. 2008). An upper body harness was used to position the rats over a treadmill belt and to partially support their body weight during bipedal locomotion (FIG. 1A). An automated, servocontrolled body weight support system (Robomedica) measured and provided the optimal amount of body weight support that each rat needed to step. To facilitate locomotion via EES, monopolar rectangular pulses (0.2 ms duration) were delivered at 40 Hz using two constant-current stimulators (AM Systems) connected to the electrodes positioned at L2 and S1.

α2c KO mice = conditions: spinal α2c KO mice, EES, clonidine i.p.
Experimental: as §1, §2

[2] = system: cats with a complete spinal cord injury; conditions: spinal / spinalized cats, complete SCI; cited from earlier work
[3] = system: humans with a severe spinal cord injury; conditions: cited from earlier work
rats with complete SCI = rats with complete SCI (Musienko et al. 2011); cited from earlier work
[4] = 5 weeks after lesion, with EES, i.p., BRL-44408 4-5 mg/kg
[5] = 5 weeks after lesion, with EES, i.p., BRL-44408 4-5 mg/kg, clonidine 0.4 mg/kg
[6] = 2 weeks after lesion, 200 umol/kg, together with EES

## CCCN(CCC)C1CCc2cccc(O)c2C1 (centres unmarked) [8-OHDPAT]
[1]
  locomotion: further facilitation of locomotion

## CC1c2ccccc2CN1CC1=NCCN1 (centres unmarked) [BRL-44408, 2-[(4,5-Dihydro-1H-imidazol-2-yl)methyl]-2,3-dihydro-1-methyl-1H-isoindole]
Spinal rats; [4]
  locomotion / stepping enabled by EES: improved locomotion; also recorded: moderately improves locomotion
Spinal rats; [5]
  paw dragging: reduced paw dragging
  step height: substantially improved the step height

## Clc1cccc(Cl)c1N=C1NCCN1 [clonidine]
Spinal rats; [4]
  locomotion / stepping enabled by EES: abolished the stepping enabled by EES
α2a KO mice
  locomotor function: triggered a facilitation of the locomotor function
  locomotor stability: improvement of locomotor stability
  movement magnitudes of the hindlimb joints: increase of the movement magnitudes of the hindlimb joints
α2c KO mice
  locomotor abilities: significant blocking of the locomotor abilities
[2]
  locomotion: marked facilitation of locomotion
[3]; human, clonidine injections (Dietz et al. 1995)
  locomotion: dysfacilitated locomotion
[3]; humans with a severe spinal cord injury, low clonidine dosages (Dietz et al., 1995)
  locomotor EMG activity: suppress or markedly reduce locomotor EMG activity
Rats with complete SCI
  stepping: abolished stepping

## NC1=N[C@@H](Cc2c(F)cccc2F)CO1 [formula (I)]
Spinal rats; 2 weeks after lesion, 200 umol/kg, effect exclusively when applied together with spinal cord stimulation (EES)
  locomotion: significantly improved locomotion
Spinal rats; [6]
  limb amplitude: increased the limb amplitude
  paw dragging: reduced the paw dragging

## Clc1ccc2nsnc2c1NC1=NCCN1 [tizanidine]
[2]
  locomotion: facilitated expression of locomotion
